In this test the target is T1, phosphorylated ZAP-70 (Homo sapiens, UniProt P43403).
T1 construct: endogenous in cells; host or cells: Jurkat cells (clone E6-1, ATCC TIB-152), pervanadate treated
T1 sequence (P43403 1-619): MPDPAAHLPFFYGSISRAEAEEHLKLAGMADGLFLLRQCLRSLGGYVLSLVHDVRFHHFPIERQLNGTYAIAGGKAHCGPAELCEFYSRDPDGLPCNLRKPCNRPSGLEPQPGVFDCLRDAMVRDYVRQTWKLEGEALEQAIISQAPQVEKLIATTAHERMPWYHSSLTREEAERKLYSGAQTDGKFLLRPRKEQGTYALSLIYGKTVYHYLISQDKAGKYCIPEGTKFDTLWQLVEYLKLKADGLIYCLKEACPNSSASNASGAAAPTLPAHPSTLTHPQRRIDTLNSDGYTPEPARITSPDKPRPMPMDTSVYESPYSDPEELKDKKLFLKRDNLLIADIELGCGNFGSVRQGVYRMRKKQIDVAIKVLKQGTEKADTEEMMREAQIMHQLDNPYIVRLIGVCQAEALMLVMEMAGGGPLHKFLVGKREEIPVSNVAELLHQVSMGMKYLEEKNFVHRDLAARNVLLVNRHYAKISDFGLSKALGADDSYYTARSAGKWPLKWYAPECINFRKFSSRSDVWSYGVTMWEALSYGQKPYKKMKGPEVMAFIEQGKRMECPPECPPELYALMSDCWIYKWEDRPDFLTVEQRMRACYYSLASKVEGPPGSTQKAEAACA
Nature of the test: Drug pulldown with immobilized aminopyrido-pyrimidin ligand 24 and Western blot analysis. Particulars: lysates of non-treated versus pervanadate treated Jurkat cells; Western blot, FIG. 2. The test is classed as binding. As for the experimental part:
As biological material cell lysates prepared from non-treated or pervanadate treated Jurkat cells were used. The drug pulldown experiment was performed as described in Example 2 with lysate samples containing 50 mg of protein. Input lysate, flowthrough (non-bound fraction) and SDS-eluates (bound fraction) were separated on a SDS-polyacrylamide gel and transferred to a membrane. The blot was probed first with a general anti-ZAP-70 antibody (2A) and then with an antiphospho-ZAP-70 antibody (2B). Secondary detection antibodies were labeled with fluorescent dyes for detection with the Odyssey infrared imaging system. […]
For Western blot analysis bound proteins were eluted from the affinity matrix and subsequently separated by SDS-Polyacrylamide gel electrophoresis. ZAP-70 was detected with a general monoclonal antibody binding to the non-phosphorylated aminoterminal part of the protein and in addition with a phospho-specific antibody (FIG. 2). […]
Jurkat cells were homogenized in a Potter S homogenizer in lysis buffer: 50 mM Tris-HCl, 0.8% NP40, 5% glycerol, 150 mM NaCl, 1.5 mM MgCl2, 25 mM NaF, 1 mM sodium vanadate, 1 mM DTT, pH 7.5. […] The supernatant was transferred again to a fresh 50 ml falcon tube, the protein concentration was determined by a Bradford assay (BioRad) and samples containing 50 mg of protein per aliquot were prepared. […]
Background: Immunoblotting shows a protein as a band on a membrane.

As to `Cn1c(=O)c(-c2c(Cl)cccc2Cl)cc2cnc(Nc3ccc(CN)cc3)cc21` [aminopyrido-pyrimidin ligand 24, 7-(4-Aminomethyl-phenylamino)-3-(2,6-dichloro-phenyl)-1-methyl-1H-[1,6]naphthyridin-2-one], the “pulldown of ZAP-70 by the immobilized ligand” value is on record as “preferentially pulls down a phosphorylated form of ZAP-70”.

The values are drawn from patent US20120178180A1, “METHODS FOR THE IDENTIFICATION OF ZAP-70 INTERACTING MOLECULES AND FOR THE PURIFICATION OF ZAP-70” (priority 2006, published 2012).
